Data: ChEMBL document CHEMBL4325881, “Facile synthesis of 2-aryl 5-hydroxy benzo[d]oxazoles and their in vitro anti-proliferative effects on various cancer cell lines” (Bioorg Med Chem Lett, 2018)

Legend:
A549 = assay: Cytotoxicity against human A549 cells assessed as reduction in cell viability after 48 hrs by MTT assay; format: functional, cell-based; conditions: A549, 48 h
[1] = Cytotoxicity against human […] cells assessed as reduction in cell viability after 48 hrs by MTT assay; format: functional, cell-based
MDA-MB-231 = assay: Cytotoxicity against human MDA-MB-231 cells assessed as reduction in cell viability after 48 hrs by MTT assay; format: functional, cell-based; conditions: MDA-MB-231, 48 h
HeLa = assay: Cytotoxicity against human HeLa cells assessed as reduction in cell viability after 48 hrs by MTT assay; format: functional, cell-based
HepG2 = assay: Cytotoxicity against human HepG2 cells assessed as reduction in cell viability after 48 hrs by MTT assay; format: functional, cell-based; conditions: HepG2, 48 h
HaCaT = assay: Cytotoxicity against human HaCaT cells assessed as reduction in cell viability after 48 hrs by MTT assay; format: cell-based

Structure (SMILES)	IC50 (A549) [µM]	IC50 [1] [µM]	IC50 (MDA-MB-231) [µM]	IC50 (HeLa) [µM]	IC50 (HepG2) [µM]	IC50 (HaCaT) [µM]
O=Cc1c(O)ccc2oc(-c3cccc4ccccc34)nc12	28.4	21.2	31.2	30.1	27.7	10.7
COc1cccc2c1C(=O)c1c(O)c3c(c(O)c1C2=O)C[C@@](O)(C(=O)CO)C[C@@H]3O[C@H]1C[C@H](N)[C@H](O)[C@H](C)O1 [DOXORUBICIN]	0.34	1.57	–	0.11	0.52	0.52
O=Cc1c(O)ccc2oc(-c3ccccc3[N+](=O)[O-])nc12	7.03	18.4	9.18	14.5	17.4	20
